Target: T1, α5β2γ2 subtype GABAAR (Homo sapiens, UniProt P18507+P31644)
T1 construct: expressed in transfected cells
T1 sequence (P31644 32-462): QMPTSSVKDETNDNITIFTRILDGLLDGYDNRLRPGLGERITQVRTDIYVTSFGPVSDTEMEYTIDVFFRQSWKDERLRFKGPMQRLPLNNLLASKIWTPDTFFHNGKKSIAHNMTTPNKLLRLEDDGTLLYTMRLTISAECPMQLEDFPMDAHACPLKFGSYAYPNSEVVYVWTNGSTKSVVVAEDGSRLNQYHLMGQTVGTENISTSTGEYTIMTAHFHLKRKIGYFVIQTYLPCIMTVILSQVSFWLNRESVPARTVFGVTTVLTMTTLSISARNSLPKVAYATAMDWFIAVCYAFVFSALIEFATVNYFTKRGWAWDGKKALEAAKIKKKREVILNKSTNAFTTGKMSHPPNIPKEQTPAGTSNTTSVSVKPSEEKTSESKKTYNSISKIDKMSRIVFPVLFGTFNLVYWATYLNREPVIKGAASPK
T1 sequence (P47870 25-512 partner limits assumed): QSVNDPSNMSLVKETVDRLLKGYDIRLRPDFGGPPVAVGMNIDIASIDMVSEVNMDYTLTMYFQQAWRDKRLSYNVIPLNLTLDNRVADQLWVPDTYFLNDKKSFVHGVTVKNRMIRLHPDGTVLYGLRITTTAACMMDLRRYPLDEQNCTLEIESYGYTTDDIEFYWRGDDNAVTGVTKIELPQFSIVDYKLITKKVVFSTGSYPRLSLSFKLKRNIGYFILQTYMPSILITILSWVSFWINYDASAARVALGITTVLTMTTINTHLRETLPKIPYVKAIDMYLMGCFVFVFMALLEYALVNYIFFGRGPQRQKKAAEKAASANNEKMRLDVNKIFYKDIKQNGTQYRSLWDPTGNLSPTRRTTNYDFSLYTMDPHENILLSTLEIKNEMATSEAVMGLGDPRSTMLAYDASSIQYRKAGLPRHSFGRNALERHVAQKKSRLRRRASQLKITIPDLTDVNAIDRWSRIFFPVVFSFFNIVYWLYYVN
T1 sequence (P18507 40-467 limits assumed): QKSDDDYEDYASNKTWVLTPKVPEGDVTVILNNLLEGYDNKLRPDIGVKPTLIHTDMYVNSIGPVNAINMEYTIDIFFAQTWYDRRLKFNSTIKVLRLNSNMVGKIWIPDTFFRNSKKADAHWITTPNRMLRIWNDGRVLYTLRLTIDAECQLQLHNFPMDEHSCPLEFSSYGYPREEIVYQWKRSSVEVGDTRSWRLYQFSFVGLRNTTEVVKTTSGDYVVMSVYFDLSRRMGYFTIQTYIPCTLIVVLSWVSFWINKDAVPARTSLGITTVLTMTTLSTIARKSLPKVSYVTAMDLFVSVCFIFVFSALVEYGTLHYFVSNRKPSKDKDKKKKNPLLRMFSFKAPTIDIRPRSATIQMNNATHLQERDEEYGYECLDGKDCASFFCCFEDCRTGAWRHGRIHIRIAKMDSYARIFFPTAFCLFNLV
Experiment: Positive allosteric modulator activity: potentiation of EC20 GABA current in oocytes
Type: cell-based
Conditions: read-out: GABA α5 Functional Data (potentiation), @ 100 nM, reported as ranges
Method: (B) Positive Allosteric Modulator Activity of Test Compounds on α5β2γ2 Subtype GABAAR
On day 1, 1 ng/32 nL of GABAA α5β2γ2 cDNA was injected into one oocyte. Test starts on day 2. The cDNA injected to the oocytes was a mix of alpha, beta and gamma, their ratio is 1:1:10 (by weight) and the total weight of the mixed 3 subunits to be injected in one oocyte was 1 ng in 32 nl volume. The injected oocytes can also be tested on day 3. In such case, the cDNA amount injected to the oocytes should be reduced by 20%.
Compounds of the present invention were tested using the following procedures.
• 1). 8 oocytes were placed in 8 chambers of OpusXpress and superfused with Modified Barth's Saline (MBS) at 3 mL/min. Glass electrodes back-filled with 3M KCl (0.5-3 megaohms) were used.
Control test (Diazepam or methyl 3,5-diphenylpyridazine-4-carboxylate) • 1). New oocytes was used to run new test. • 2). […] Oocytes were washed with MBS for 5-10 min. • 4). […] Itest was divided by IGABA to obtain potentiation (%). Test Compounds at Multiple Doses • 1). Repeat the above steps 1), 2) and 3) in the control test. • 2). […] Divide Itest by IGABA to obtain potentiation (%). • 3). Discard all tested oocytes, new oocytes were used and the above steps 1) and 2) were repeated to test second concentration of the same compound. Each oocyte was used for only one concentration test for a single test compound. The steps were repeated for other test compounds.

Row | SMILES | activation at 0.1 µM
1 | CCOC(=O)c1ncn2c1Cc1c(C)nnn1-c1cc(OC)ccc1-2 [Compound 1] | 20 to 50%
2 | CCOC(=O)c1ncn2c1Cc1c(C)nnn1-c1cc(F)ccc1-2 [Compound 2] | 20 to 50%
3 | CCOC(=O)c1ncn2c1Cc1c(COc3ccccc3)nnn1-c1cc(OC)ccc1-2 [Compound 9] | 20 to 50%
4 | CCOC(=O)c1ncn2c1Cc1c(COc3ccc(F)cc3)nnn1-c1cc(OC)ccc1-2 [Compound 10] | 5 to 20%
5 | CCOC(=O)c1ncn2c1Cc1c(COc3cccc(OC)c3)nnn1-c1cc(OC)ccc1-2 [Compound 11] | 20 to 50%
6 | CCOC(=O)c1ncn2c1Cc1c(Cc3ccc(Cl)cc3)nnn1-c1cc(F)ccc1-2 [Compound 45] | 20 to 50%
7 | CCOC(=O)c1ncn2c1Cc1c(CN3CCCC3)nnn1-c1cc(OC)ccc1-2 [Compound 48] | 20 to 50%
8 | CCOC(=O)c1ncn2c1Cc1c(CN(CC)CC)nnn1-c1cc(OC)ccc1-2 [Compound 50] | 5 to 20%
9 | CCOC(=O)c1ncn2c1Cc1c(CN(C)Cc3ccccc3)nnn1-c1cc(OC)ccc1-2 [Compound 51] | 5 to 20%
10 | CCOC(=O)c1ncn2c1Cn1c(COc3ccccc3)nnc1-c1cc(OC)ccc1-2 [Compound 55] | 20 to 50%
11 | CCOC(=O)c1ncn2c1Cn1c(Oc3ccccc3)nnc1-c1cc(OC)ccc1-2 [Compound 104] | 5 to 20%
12 | Cc1noc(-c2ncn3c2Cc2c(Cc4ccccc4)nnn2-c2cc(F)ccc2-3)n1 [Compound 109] | 20 to 50%
13 | Cc1noc(-c2ncn3c2Cc2c(C)nnn2-c2cc(F)ccc2-3)n1 [Compound 110] | 20 to 50%
14 | CCOC(=O)c1ncn2c1Cc1c(Cc3cccnc3)nnn1-c1cc(C)ccc1-2 [Compound 111] | 20 to 50%
15 | Cc1nnn2c1Cc1c(C(=O)OC(C)C)ncn1-c1ccc(F)cc1-2 [Compound 112] | 5 to 20%
16 | Cc1nnn2c1Cc1c(C(=O)OCC(C)(C)C)ncn1-c1ccc(F)cc1-2 [Compound 113] | > 50%
17 | Cc1nnn2c1Cc1c(C(=O)OCC(F)(F)F)ncn1-c1ccc(F)cc1-2 [Compound 114] | > 50%
18 | COc1ccc2c(c1)-c1nnc(COc3ccccc3)n1Cc1c(C(=O)OC(C)C)ncn1-2 [Compound 120] | 20 to 50%
19 | Cc1ncn2c1Cc1c(C)nnn1-c1ccccc1-2 [Compound 121] | 5 to 20%
20 | COc1ccc2c(c1)-c1nnc(COc3ccccc3)n1Cc1c(C#N)ncn1-2 [Compound 122] | 5 to 20%
21 | Cc1noc(-c2ncn3c2Cc2c(C)nnn2-c2ccccc2-3)n1 [Compound 126] | 20 to 50%
22 | Cc1nc(-c2ncn3c2Cc2c(C)nnn2-c2ccccc2-3)no1 [Compound 127] | 20 to 50%
23 | COCc1nnc2n1Cc1c(-c3nc(C)no3)ncn1-c1ccc(OC)cc1-2 [Compound 128] | 20 to 50%
24 | COCc1nnc2n1Cc1c(-c3nc(C(C)C)no3)ncn1-c1ccc(OC)cc1-2 [Compound 130] | 20 to 50%
25 | Cc1nnn2c1Cc1c(-c3nc(C(C)C)no3)ncn1-c1ccccc1-2 [Compound 132] | 20 to 50%
26 | Cc1nnn2c1Cc1c(-c3noc(C(C)C)n3)ncn1-c1ccccc1-2 [Compound 133] | 5 to 20%
27 | CCOC(=O)c1ncn2c1Cn1c(COc3ccccc3)nnc1-c1cc(F)ccc1-2 [Compound 137] | 20 to 50%
28 | Cc1nc(-c2ncn3c2Cc2c(C)nnn2-c2cc(F)ccc2-3)no1 [Compound 145] | > 50%

Row | SMILES | activation at 0.1 µM
29 | CC(C)c1nc(-c2ncn3c2Cn2c(COc4ccccc4)nnc2-c2cc(F)ccc2-3)no1 [Compound 147] | 20 to 50%
30 | Cc1nc(-c2ncn3c2Cn2c(COc4ccccc4)nnc2-c2cc(F)ccc2-3)no1 [Compound 148] | 20 to 50%
31 | Cc1nnn2c1Cc1c(-c3noc(C(C)C)n3)ncn1-c1ccc(F)cc1-2 [Compound 149] | > 50%
32 | Cc1nnn2c1Cc1c(C(=O)OC(C)C)ncn1-c1ccccc1-2 [Compound 153] | 20 to 50%
33 | CCc1nc(-c2ncn3c2Cc2c(C)nnn2-c2cc(F)ccc2-3)no1 [Compound 155] | 20 to 50%
34 | CCc1nc(-c2ncn3c2Cn2c(COc4ccccc4)nnc2-c2cc(F)ccc2-3)no1 [Compound 158] | 20 to 50%
35 | Cc1nnn2c1Cc1c(-c3noc(C(C)(C)C)n3)ncn1-c1ccc(F)cc1-2 [Compound 160] | > 50%
36 | COc1ccc2c(c1)-c1nnc(COc3ccccc3)n1Cc1c(-c3noc(C)n3)ncn1-2 [Compound 162] | 20 to 50%
37 | COc1ccc2c(c1)-c1nnc(COc3ccc(F)cc3)n1Cc1c(-c3noc(C)n3)ncn1-2 [Compound 163] | 20 to 50%
38 | COCc1nnc2n1Cc1c(-c3noc(C)n3)ncn1-c1ccc(OC)cc1-2 [Compound 164] | 5 to 20%
39 | COc1ccc2c(c1)-c1nnc(COCc3ccccc3)n1Cc1c(C#N)ncn1-2 [Compound 166] | 5 to 20%
40 | COc1ccc2c(c1)-n1nnc(COc3cccc(F)c3)c1Cc1c(-c3noc(C)n3)ncn1-2 [Compound 168] | 5 to 20%
41 | COc1ccc2c(c1)-c1nnc(COc3ccccc3)n1Cc1c(-c3noc(C(C)C)n3)ncn1-2 [Compound 171] | > 50%
42 | COc1ccc2c(c1)-c1nnc(COc3ccc(F)cc3)n1Cc1c(-c3noc(C(C)C)n3)ncn1-2 [Compound 172] | > 50%
43 | CCOCc1nnc2n1Cc1c(-c3noc(C(C)C)n3)ncn1-c1ccc(OC)cc1-2 [Compound 173] | > 50%
44 | COc1ccc2c(c1)-c1nnc(COc3cccnc3)n1Cc1c(-c3noc(C(C)C)n3)ncn1-2 [Compound 176] | > 50%
45 | COc1ccc2c(c1)-c1nnc(COc3cccc4ccccc34)n1Cc1c(-c3noc(C(C)C)n3)ncn1-2 [Compound 177] | > 50%
46 | COc1ccc2c(c1)-c1nnc(COC3CCCC3)n1Cc1c(-c3noc(C(C)C)n3)ncn1-2 [Compound 178] | > 50%
47 | COc1ccc2c(c1)-c1nnc(COc3cccc(F)c3)n1Cc1c(-c3noc(C(C)C)n3)ncn1-2 [Compound 179] | > 50%
48 | COc1ccc2c(c1)-n1nnc(COc3ccc(F)cc3)c1Cc1c(-c3noc(C)n3)ncn1-2 [Compound 180] | 20 to 50%
49 | COc1ccc2c(c1)-n1nnc(COc3ccccc3F)c1Cc1c(-c3noc(C)n3)ncn1-2 [Compound 181] | 20 to 50%
50 | COc1ccc2c(c1)-n1nnc(COc3ccccc3)c1Cc1c(-c3noc(C)n3)ncn1-2 [Compound 182] | 20 to 50%
51 | COc1ccc2c(c1)-c1nnc(COCc3cccc(F)c3)n1Cc1c(-c3noc(C(C)C)n3)ncn1-2 [Compound 183] | 20 to 50%
52 | COc1ccc2c(c1)-c1nnc(COCc3ccccc3F)n1Cc1c(-c3noc(C(C)C)n3)ncn1-2 [Compound 184] | 20 to 50%
53 | CC(C)c1nc(-c2ncn3c2Cn2c(COc4cccnc4)nnc2-c2cc(F)ccc2-3)no1 [Compound 185] | > 50%
54 | COCc1nnc2n1Cc1c(-c3noc(C(C)C)n3)ncn1-c1ccc(F)cc1-2 [Compound 186] | > 50%
55 | CCOCc1nnc2n1Cc1c(-c3noc(C(C)C)n3)ncn1-c1ccc(F)cc1-2 [Compound 187] | 20 to 50%

Reference: patent publication US12528819B2 (priority 2016, dated 2026)
